Laboratory results reported in PMC10850145, “Hormonal steroids induce multidrug resistance and stress response genes in Neisseria gonorrhoeae by binding to MtrR” (Nature Communications, 2024).
Several values for one entry are separate records, joined by “and”; a condition that tells them apart may be missing. Equal values may be shown once. Read-outs that look alike come from different tables or passages of the source.

Experiments:
[1] = target: T1, MtrR (Neisseria gonorrhoeae, UniProt P39897); assay: Isothermal titration calorimetry, ligand binding to MtrR WT; conditions: equilibrium dissociation constant (Kd), MtrR WT, ITC, 25 °C, 1% MeOH
T1 construct: Hexa-histidine tag with TEV protease cleavage site (N, cleaved yes); made in house; host or cells: E. coli Rosetta Gami B(DE3) pLysS
T1 sequence (P39897 whole entry): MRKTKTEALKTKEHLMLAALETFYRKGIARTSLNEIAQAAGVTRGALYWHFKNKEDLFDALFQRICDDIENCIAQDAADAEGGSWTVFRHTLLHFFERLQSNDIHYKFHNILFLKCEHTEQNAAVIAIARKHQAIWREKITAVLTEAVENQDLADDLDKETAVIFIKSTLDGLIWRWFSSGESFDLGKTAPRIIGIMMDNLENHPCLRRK

[2] = target: T2, MtrR D171A (Neisseria gonorrhoeae, UniProt P39897, D171A); assay: biochemical; format: binding
T2 construct: Hexa-histidine tag with TEV protease cleavage site (N, cleaved yes); made in house; host or cells: E. coli Rosetta Gami B(DE3) pLysS
T2 sequence (P39897 whole entry D171A): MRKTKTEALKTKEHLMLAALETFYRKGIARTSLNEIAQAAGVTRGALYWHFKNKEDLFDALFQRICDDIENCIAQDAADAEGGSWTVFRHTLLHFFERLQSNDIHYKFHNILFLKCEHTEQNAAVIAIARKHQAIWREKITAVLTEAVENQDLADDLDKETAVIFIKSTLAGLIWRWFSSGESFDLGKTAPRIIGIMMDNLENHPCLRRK

[3] = target: T3, MtrR binding to rpoH operator (27mer) (Neisseria gonorrhoeae, UniProt P39897); assay: Fluorescence polarization based DNA binding assay, rpoH operator; conditions: rpoH 27mer + 125 µM steroid
T3 construct: Hexa-histidine tag with TEV protease cleavage site (N, cleaved yes); made in house; host or cells: E. coli Rosetta Gami B(DE3) pLysS
T3 sequence (P39897 whole entry): as the sequence (P39897 whole entry) above
Protocol: Fluorescence polarization based-DNA binding data were collected using a Panvera Beacon 2000 fluorescence polarization system (Invitrogen) and analyzed with Prism (Graphpad Software 9, 10). Purified MtrR was buffer exchanged into “DNA” binding buffer (150 mM NaCl, 20 mM Tris-HCl pH 7.5, 2.5% glycerol, 1 mM TCEP). […] The reported oligoduplexes containing the rpoH and mtrCDE binding site differ in lengths, 27mer and 21mer, respectively[17],[21]. […] BSA and dI-dC are included as carriers and to control for nonspecific DNA binding. Samples were excited at 490 nm and polarized emissions measured at 530 nm. Controls were run with no protein (DNA ± methanol, hormonal steroids) to ensure that millipolarization values were not affected by experimental conditions alone. The binding affinity of protein for DNA was determined using the following equation: P = Pf + (Pb – Pf) [M] / (Kd + [M]) where P is the measured polarization, Pf is the polarization of free DNA, Pb is the polarization of the completely bound DNA, Kd is the equilibrium dissociation constant, and M is the concentration of protein. Pb and Kd were determined by nonlinear least-squares analysis. At least three independent experimental measurements were averaged for each reported binding constant.

[4] = test system: gonococcal strain FA19; assay: MIC of steroidal hormones on GC agar, strain FA19; format: cell-based; conditions: Neisseria gonorrhoeae, strain FA19, GC agar, read-out: MIC
Protocol: To determine the minimal inhibitory concentrations (MICs) by the steroidal hormones and their effect on antimicrobial susceptibility, 5 x 10^5 CFU and 1:5 serial dilutions of gonococcal strains were spotted on GC agar plates containing different concentrations of antibiotics and/or hormones as indicated. Antimicrobial susceptibility was assessed after 24 h incubation.
Table S1. Steroidal hormones are substrates of the MtrCDE efflux pump
Progesterone Testosterone
*Minimal inhibition concentration is defined by the lowest concentration at which visible growth is […]

[5] = test system: FA19-rpoH-lacZ; assay: Gonococcal growth in liquid culture (GC broth) with hormones (Fig S7)

CC(=O)[C@H]1CC[C@H]2[C@@H]3CCC4=CC(=O)CC[C@]4(C)[C@H]3CC[C@]12C [Progesterone, progesterone]
Kd [1]: 2.75 ± 0.7 µM
Kd [2]: 8.36 ± 2.5 µM
fluorescence polarization, MtrR titration ([3]; MtrR WT dimer 0.00 nM): 0.00 mP
fluorescence polarization, MtrR titration ([3]; MtrR WT dimer 25.90 nM): 11.91 mP and 9.75 mP and 10.51 mP
fluorescence polarization, MtrR titration ([3]; MtrR WT dimer 35.50 nM): 14.38 mP and 9.72 mP and 14.14 mP
fluorescence polarization, MtrR titration ([3]; MtrR WT dimer 54.52 nM): 18.81 mP and 15.99 mP and 17.44 mP
fluorescence polarization, MtrR titration ([3]; MtrR WT dimer 73.35 nM): 23.45 mP and 18.32 mP and 20.67 mP
fluorescence polarization, MtrR titration ([3]; MtrR WT dimer 110.67 nM): 27.11 mP and 21.95 mP and 25.01 mP
fluorescence polarization, MtrR titration ([3]; MtrR WT dimer 147.65 nM): 29.38 mP and 25.62 mP and 28.21 mP
fluorescence polarization, MtrR titration ([3]; MtrR WT dimer 220.59 nM): 32.78 mP and 29.35 mP and 32.41 mP
fluorescence polarization, MtrR titration ([3]; MtrR WT dimer 292.55 nM): 36.31 mP and 32.79 mP and 35.11 mP
fluorescence polarization, MtrR titration ([3]; MtrR WT dimer 363.86 nM): 36.91 mP and 35.45 mP and 37.94 mP
fluorescence polarization, MtrR titration ([3]; MtrR WT dimer 434.54 nM): 40.61 mP and 38.05 mP and 40.54 mP
fluorescence polarization, MtrR titration ([3]; MtrR WT dimer 504.61 nM): 41.81 mP and 39.19 mP and 42.17 mP
fluorescence polarization, MtrR titration ([3]; MtrR WT dimer 574.07 nM): 44.75 mP and 41.42 mP and 44.21 mP
MIC ([4]; 24 h): 127 µM
MIC [4]: 40 µg/mL
growth curve reading after BLANKING ([5]; 0 hr, 0.1 µM): 0.013
growth curve reading, raw replicates ([5]; 0 hr, 0.1 µM): 0.046
growth curve reading after BLANKING ([5]; 0 hr, 1 µM): 0.013
growth curve reading, raw replicates ([5]; 0 hr, 1 µM): 0.046
growth curve reading after BLANKING ([5]; 0 hr, 10 µM): 0.013
growth curve reading, raw replicates ([5]; 0 hr, 10 µM): 0.046
growth curve reading after BLANKING ([5]; 0 hr, 25 µM): 0.013
growth curve reading, raw replicates ([5]; 0 hr, 25 µM): 0.046
growth curve reading after BLANKING ([5]; 0 hr, 50 µM): 0.013
growth curve reading, raw replicates ([5]; 0 hr, 50 µM): 0.046
growth curve reading after BLANKING ([5]; 1.18 hr, 0.1 µM): 0.018
growth curve reading, raw replicates ([5]; 1.18 hr, 0.1 µM): 0.051 and 0.052
growth curve reading after BLANKING ([5]; 1.18 hr, 1 µM): 0.020
growth curve reading, raw replicates ([5]; 1.18 hr, 1 µM): 0.051 and 0.054
growth curve reading after BLANKING ([5]; 1.18 hr, 10 µM): 0.019
growth curve reading, raw replicates ([5]; 1.18 hr, 10 µM): 0.051 and 0.052
growth curve reading after BLANKING ([5]; 1.18 hr, 25 µM): 0.018
growth curve reading, raw replicates ([5]; 1.18 hr, 25 µM): 0.051 and 0.052
growth curve reading after BLANKING ([5]; 1.18 hr, 50 µM): 0.017
growth curve reading, raw replicates ([5]; 1.18 hr, 50 µM): 0.049 and 0.051
growth curve reading after BLANKING ([5]; 2 hr, 0.1 µM): 0.029
growth curve reading, raw replicates ([5]; 2 hr, 0.1 µM): 0.062
growth curve reading after BLANKING ([5]; 2 hr, 1 µM): 0.031
growth curve reading, raw replicates ([5]; 2 hr, 1 µM): 0.063 and 0.066
growth curve reading after BLANKING ([5]; 2 hr, 10 µM): 0.029
growth curve reading, raw replicates ([5]; 2 hr, 10 µM): 0.062
growth curve reading after BLANKING ([5]; 2 hr, 25 µM): 0.030
growth curve reading, raw replicates ([5]; 2 hr, 25 µM): 0.062 and 0.065
growth curve reading after BLANKING ([5]; 2 hr, 50 µM): 0.026
growth curve reading, raw replicates ([5]; 2 hr, 50 µM): 0.060 and 0.059
growth curve reading after BLANKING ([5]; 3 hr, 0.1 µM): 0.038
growth curve reading, raw replicates ([5]; 3 hr, 0.1 µM): 0.072 and 0.070
growth curve reading after BLANKING ([5]; 3 hr, 1 µM): 0.046
growth curve reading, raw replicates ([5]; 3 hr, 1 µM): 0.080 and 0.077
growth curve reading after BLANKING ([5]; 3 hr, 10 µM): 0.037
growth curve reading, raw replicates ([5]; 3 hr, 10 µM): 0.070
growth curve reading after BLANKING ([5]; 3 hr, 25 µM): 0.046
growth curve reading, raw replicates ([5]; 3 hr, 25 µM): 0.079
growth curve reading after BLANKING ([5]; 3 hr, 50 µM): 0.033
growth curve reading, raw replicates ([5]; 3 hr, 50 µM): 0.067 and 0.065
growth curve reading after BLANKING ([5]; 4 hr, 0.1 µM): 0.053
growth curve reading, raw replicates ([5]; 4 hr, 0.1 µM): 0.086
growth curve reading after BLANKING ([5]; 4 hr, 1 µM): 0.062
growth curve reading, raw replicates ([5]; 4 hr, 1 µM): 0.093 and 0.096
growth curve reading after BLANKING ([5]; 4 hr, 10 µM): 0.050
growth curve reading, raw replicates ([5]; 4 hr, 10 µM): 0.082 and 0.084
growth curve reading after BLANKING ([5]; 4 hr, 25 µM): 0.062
growth curve reading, raw replicates ([5]; 4 hr, 25 µM): 0.096 and 0.093
growth curve reading after BLANKING ([5]; 4 hr, 50 µM): 0.044
growth curve reading, raw replicates ([5]; 4 hr, 50 µM): 0.076 and 0.078
growth curve reading after BLANKING ([5]; 5 hr, 0.1 µM): 0.071
growth curve reading, raw replicates ([5]; 5 hr, 0.1 µM): 0.103 and 0.104
growth curve reading after BLANKING ([5]; 5 hr, 1 µM): 0.079
growth curve reading, raw replicates ([5]; 5 hr, 1 µM): 0.110 and 0.113
growth curve reading after BLANKING ([5]; 5 hr, 10 µM): 0.065
growth curve reading, raw replicates ([5]; 5 hr, 10 µM): 0.096 and 0.099
growth curve reading after BLANKING ([5]; 5 hr, 25 µM): 0.078
growth curve reading, raw replicates ([5]; 5 hr, 25 µM): 0.113 and 0.110
growth curve reading after BLANKING ([5]; 5 hr, 50 µM): 0.056
growth curve reading, raw replicates ([5]; 5 hr, 50 µM): 0.087 and 0.090
growth curve reading after BLANKING ([5]; 5.95 hr, 0.1 µM): 0.089
growth curve reading, raw replicates ([5]; 5.95 hr, 0.1 µM): 0.121 and 0.123
growth curve reading after BLANKING ([5]; 5.95 hr, 1 µM): 0.097
growth curve reading, raw replicates ([5]; 5.95 hr, 1 µM): 0.130
growth curve reading after BLANKING ([5]; 5.95 hr, 10 µM): 0.080
growth curve reading, raw replicates ([5]; 5.95 hr, 10 µM): 0.112 and 0.115
growth curve reading after BLANKING ([5]; 5.95 hr, 25 µM): 0.095
growth curve reading, raw replicates ([5]; 5.95 hr, 25 µM): 0.130 and 0.126
growth curve reading after BLANKING ([5]; 5.95 hr, 50 µM): 0.070
growth curve reading, raw replicates ([5]; 5.95 hr, 50 µM): 0.103 and 0.104
growth curve reading after BLANKING ([5]; 6.82 hr, 0.1 µM): 0.100
growth curve reading, raw replicates ([5]; 6.82 hr, 0.1 µM): 0.130
growth curve reading after BLANKING ([5]; 6.82 hr, 1 µM): 0.112
growth curve reading after BLANKING ([5]; 6.82 hr, 10 µM): 0.091
growth curve reading, raw replicates ([5]; 6.82 hr, 10 µM): 0.126 and 0.123
growth curve reading after BLANKING ([5]; 6.82 hr, 25 µM): 0.109
growth curve reading after BLANKING ([5]; 6.82 hr, 50 µM): 0.083
growth curve reading, raw replicates ([5]; 6.82 hr, 50 µM): 0.114 and 0.119
